Converted amounts (≈) assume the structure as drawn. The source made the active and inactive calls. The calls are words filed in the database; no cut-off is given here.
Experiments:
[1] = system: Pseudomonas aeruginosa; assay: Anti-microbial activity against penicillin-susceptible Pseudomonas aeruginosa 27853 incubated for 20 hrs By CLSI based micro-dilution method; assay type: functional
[2] = system: Escherichia coli; assay: Anti-microbial activity against penicillin-susceptible Escherichia coli ATCC25922 incubated for 20 hrs By CLSI based micro-dilution method; assay type: functional
[3] = system: Pseudomonas aeruginosa; assay: Antibacterial activity against Pseudomonas aeruginosa 27853 at logarithmic growth phase assessed as growth inhibition at 153.6 microg/ml measured upto 25 hrs by growth curve assay; assay type: functional, organism-based; settings: dose 153.6 µg/ml
[4] = system: Pseudomonas aeruginosa; assay: Antibiofilm activity against logarithmic growth phase Pseudomonas aeruginosa PAO1 assessed as inhibition of biofilm formation at 32 microg/ml incubated for 20 hrs by crystal violet staining based analysis; assay type: functional
[5] = system: Pseudomonas aeruginosa; assay: Antibiofilm activity against logarithmic growth phase Pseudomonas aeruginosa PAO1 assessed as inhibition of biofilm formation at 16 microg/ml incubated for 20 hrs by crystal violet staining based analysis; assay type: functional; settings: for inhibition: dose 16.0 µg/ml
[6] = Inhibition of quorum sensing system in Pseudomonas aeruginosa PAO1 at logarithmic growth period assessed as inhibition of pyocyanin production at 102.4 microg/ml incubated for 18 hrs by pyocyanin inhibition assay; settings: dose 102.4 µg/ml
[7] = system: Bacillus pumilus; assay: Anti-microbial activity against Bacillus pumilus CMCC63202 incubated for 20 hrs By CLSI based micro-dilution method; assay type: functional
[8] = system: Pseudomonas aeruginosa; assay: Antibacterial activity against Pseudomonas aeruginosa PAO1 at logarithmic growth phase assessed as growth inhibition at 153.6 microg/ml measured upto 25 hrs by growth curve assay; assay type: functional, organism-based; settings: dose 153.6 µg/ml
[9] = system: Staphylococcus aureus; assay: Anti-microbial activity against erythromycin-susceptible Staphylococcus aureus ATCC25923 incubated for 20 hrs By CLSI based micro-dilution method; assay type: functional
[10] = system: Pseudomonas aeruginosa; assay: Anti-microbial activity against Pseudomonas aeruginosa PAO1 incubated for 20 hrs By CLSI based micro-dilution method; assay type: functional
[11] = system: Staphylococcus aureus; assay: Anti-microbial activity against methicillin-resistant Staphylococcus aureus ATCC43300 incubated for 20 hrs By CLSI based micro-dilution method; assay type: functional
[12] = system: Pseudomonas aeruginosa; assay: Anti-virulence activity against logarithmic growth phase Pseudomonas aeruginosa PAO1 assessed as inhibition of Rhamnolipid production at 102.4 microg/ml measured after 24 hrs; assay type: functional
[13] = system: Bacillus subtilis; assay: Anti-microbial activity against Bacillus subtilis ATCC9372 incubated for 20 hrs By CLSI based micro-dilution method; assay type: functional
[14] = system: Pseudomonas aeruginosa; assay: Induction of anti-bacterial effect in Pseudomonas aeruginosa PAO1 assessed as synergistic effect by measuring reduction in bacterial survival in presence of clarithromycin measured after 24 hrs incubation; assay type: functional, organism-based; settings: dose 8-128 µg/ml
[15] = system: Pseudomonas aeruginosa; assay: Induction of anti-bacterial effect in Pseudomonas aeruginosa PAO1 assessed as synergistic effect by measuring reduction in bacterial survival in presence of ciprofloxacin measured after 24 hrs incubation; assay type: functional, organism-based; settings: dose 8-128 µg/ml
[16] = system: Pseudomonas aeruginosa; assay: Inhibition of protease in logarithmic growth phase Pseudomonas aeruginosa PAO1 assessed as inhibition rate at 102.4 microg/ml measured after 32 hrs; settings: dose 102.4 µg/ml
[17] = system: Erythrocyte; assay: Hemolytic activity in mouse RBC isolated from eye ball assessed as hemolysis at 256 microg/ml incubated for 1 hr; assay type: toxicity, cell-based; settings: dose 256 µg/ml
[18] = system: Pseudomonas aeruginosa; assay: Induction of anti-bacterial effect in Pseudomonas aeruginosa PAO1 assessed as synergistic effect by measuring reduction in bacterial survival in presence of clarithromycin at 16 to 128 microg/ml measured after 24 hrs incubation; assay type: functional, organism-based; settings: dose 16-128 µg/ml
[19] = system: Pseudomonas aeruginosa; assay: Induction of anti-bacterial effect in Pseudomonas aeruginosa PAO1 assessed as synergistic effect by measuring reduction in bacterial survival in presence of ciprofloxacin at 16 to 128 microg/ml measured after 24 hrs incubation; assay type: functional, organism-based; settings: dose 16-128 µg/ml
[20] = system: Pseudomonas aeruginosa; assay: Induction of anti-bacterial effect in Pseudomonas aeruginosa PAO1 assessed as synergistic effect by measuring reduction in bacterial survival in presence of ciprofloxacin at 128 microg/ml measured after 24 hrs incubation relative to control; assay type: functional; settings: dose 128 µg/ml

SMILES | MIC [1] [mg/L] | MIC [2] [mg/L] | Activity [3] | inhibition at 32 µg/mL [4] [%] | inhibition [5] | inhibition [6] | MIC [7] [mg/L] | Activity [8] | MIC [9] [mg/L] | MIC [10] [mg/L] | MIC [11] [mg/L] | inhibition at 102.4 µg/mL [12] [%] | MIC [13] [mg/L] | Activity [14] | Activity [15] | inhibition [16] | Activity [17] | other results
O=C(CCCCOc1ccc(Cl)cc1)NNc1nc2ccccc2s1 | > 512 | > 512 | inactive | > 25.4 | Active | Active | 256 (≈ 681 µM) | inactive | 256 (≈ 681 µM) | > 512 | 512 (≈ 1360 µM) | > 40 | > 512 | – | – | – | – | –
O=C(CCCOc1ccc(Cl)cc1)NNc1nc2ccccc2o1 | 512 (≈ 1480 µM) | > 512 | – | > 25.4 | Active | inactive | 512 (≈ 1480 µM) | – | 256 (≈ 740 µM) | > 512 | 256 (≈ 740 µM) | – | 512 (≈ 1480 µM) | Dose-Dependent Effect | Dose-Dependent Effect | 30% | – | –
COc1ccc(OCCCCC(=O)NNc2nc3ccccc3o2)cc1 | 512 (≈ 1440 µM) | > 512 | – | > 25.4 | Active | Active | > 512 | – | 512 (≈ 1440 µM) | > 512 | > 512 | 52.1 | 512 (≈ 1440 µM) | Dose-Dependent Effect | Dose-Dependent Effect | 14.6% | Non-Toxic | –
O=C(COc1ccc(Cl)cc1)NNc1nc2ccccc2o1 | 512 (≈ 1610 µM) | > 512 | inactive | > 25.4 | – | 46.9% | > 512 | inactive | 512 (≈ 1610 µM) | > 512 | 256 (≈ 806 µM) | – | 512 (≈ 1610 µM) | Dose-Dependent Effect | Dose-Dependent Effect | 10% | – | inhibition at 16 µg/mL [5]: > 50%
O=C(CCCCOc1ccc(Cl)cc1)NNc1nc2ccccc2o1 | 512 (≈ 1420 µM) | > 512 | – | > 25.4 | Active | Active | > 512 | – | 128 (≈ 356 µM) | > 512 | 512 (≈ 1420 µM) | – | 512 (≈ 1420 µM) | Dose-Dependent Effect | Dose-Dependent Effect | inactive | Non-Toxic | Activity [18]: Active; Activity [19]: Active; Activity [20]: >90%
O=C1C=C(Br)/C(=C\Br)O1 | 256 (≈ 1010 µM) | 256 (≈ 1010 µM) | – | – | – | – | 256 (≈ 1010 µM) | – | 32 (≈ 126 µM) | 128 (≈ 504 µM) | 128 (≈ 504 µM) | 44.9 | 64 (≈ 252 µM) | – | – | – | – | –
O=C(NNc1nc2ccccc2s1)c1ccccc1F | 512 (≈ 1780 µM) | > 512 | inactive | > 25.4 | Active | 62.8% | 512 (≈ 1780 µM) | inactive | > 512 | > 512 | > 512 | – | 512 (≈ 1780 µM) | Dose-Dependent Effect | Dose-Dependent Effect | > 20% | Non-Toxic | –
COc1ccc(/C=N/Nc2nc3ccccc3o2)cc1OC | > 512 | > 512 | inactive | > 25.4 | Active | 40.3% | 256 (≈ 861 µM) | inactive | 128 (≈ 431 µM) | > 512 | 256 (≈ 861 µM) | – | 512 (≈ 1720 µM) | – | – | 21.9% | – | –
Cc1cccc2sc(NNC(=O)CCCCOc3ccc(F)cc3)nc12 | > 512 | > 512 | inactive | > 25.4 | Active | Active | 512 (≈ 1370 µM) | inactive | 512 (≈ 1370 µM) | > 512 | 512 (≈ 1370 µM) | – | 512 (≈ 1370 µM) | Dose-Dependent Effect | Dose-Dependent Effect | > 20% | – | –
